Legend:
[1] = system: PAF; assay: anti-PAF pharmacological effect, solid form vs conventional administration; assay type: in vivo
Description: (§1) A synthetic anti-PAF, 4,7,8,10-tetrahydro-1-methyl-6-(2-chlorphenyl)-9-(4-methoxyphenylthiocarbamoyl)-pyrido-[4′,3′-4,5] thieno [3,2-f]-1,2,4-triazolo [4,5-a] 1,4-diazepine, and a natural anti-PAF, ginkgolide B, were compared to conventional administration. The synthetic anti-PAF cannot conventionally be used parenterally because of its insolubility.

[2] = assay type: physicochemical
Protocol: (§2) A test was conducted with Insulin Human Recombinant (IHR) and Insulin Bovine Pancreas (IBP). […] IHR and IBP represent about 26 Insulin Units (IU) per mg.
as §1

[3] = pharmacokinetic profiles of injected tablets vs conventional solutions; assay type: in vivo; details: tablets with gelatin and PVP 5-10%
Protocol: A formulation of a somatostatin analogue, D-Nal-cyclo [Cys-Tyr-D-Trp-Lys-Val-Cys]-Thr-NH2 was made into injectable tablets by associating the dry material with gelatin and polyvinylpyrrolidone (PVP, 5-10%). The tablets were injected and compared to conventional solutions in terms of pharmacokinetic profiles.

[4] = insulin unit content per mg
Protocol: as §2

Compound | water solubility [2] | Insulin Units (IU) per mg [4] | further results
CC1C(=O)OC2C(O)C34C5CC(C(C)(C)C)C36C(OC(=O)C6O)OC4(C(=O)O5)C12O (centres unmarked) [ginkgolide B] | slightly soluble | – | effect after initial injection, solid vs solution ([1]; same dose, solution pH 8.75): the effect was the same after initial injection; duration of effect ([1]; solid dry formulation, same dose): 24 h; duration of effect ([1]; solution form (pH 8.75), same dose): 2 h
COc1ccc(NC(=S)N2CCc3c(sc4c3C(c3ccccc3Cl)=NCc3nnc(C)n3-4)C2)cc1 [synthetic anti-PAF, 4,7,8,10-tetrahydro-1-methyl-6-(2-chlorphenyl)-9-(4-methoxyphenylthiocarbamoyl)-pyrido-[4′,3′-4,5] thieno [3,2-f]-1,2,4-triazolo [4,5-a] 1,4-diazepine] | insolubility | – | correlation between pharmacological effect and blood concentration ([1]; solid form): very good correlation
D-Nal-cyclo [Cys-Tyr-D-Trp-Lys-Val-Cys]-Thr-NH2 | – | – | pharmacokinetic profile / pharmacological results, injected tablets vs conventional solutions [3]: substantially the same pharmacological results
Insulin Bovine Pancreas [IBP] | water insoluble | about 26 IU per mg | –
Insulin Human Recombinant [IHR] | water soluble | about 26 IU per mg | –
